According to ChEMBL document CHEMBL1145498, “A systematic interaction map of validated kinase inhibitors with Ser/Thr kinases” (Proc Natl Acad Sci U S A, 2007):

What was measured:
[1] = target: T1, 3-phosphoinositide-dependent protein kinase 1 (Homo sapiens) (UniProt O15530)
T1 sequence (whole entry): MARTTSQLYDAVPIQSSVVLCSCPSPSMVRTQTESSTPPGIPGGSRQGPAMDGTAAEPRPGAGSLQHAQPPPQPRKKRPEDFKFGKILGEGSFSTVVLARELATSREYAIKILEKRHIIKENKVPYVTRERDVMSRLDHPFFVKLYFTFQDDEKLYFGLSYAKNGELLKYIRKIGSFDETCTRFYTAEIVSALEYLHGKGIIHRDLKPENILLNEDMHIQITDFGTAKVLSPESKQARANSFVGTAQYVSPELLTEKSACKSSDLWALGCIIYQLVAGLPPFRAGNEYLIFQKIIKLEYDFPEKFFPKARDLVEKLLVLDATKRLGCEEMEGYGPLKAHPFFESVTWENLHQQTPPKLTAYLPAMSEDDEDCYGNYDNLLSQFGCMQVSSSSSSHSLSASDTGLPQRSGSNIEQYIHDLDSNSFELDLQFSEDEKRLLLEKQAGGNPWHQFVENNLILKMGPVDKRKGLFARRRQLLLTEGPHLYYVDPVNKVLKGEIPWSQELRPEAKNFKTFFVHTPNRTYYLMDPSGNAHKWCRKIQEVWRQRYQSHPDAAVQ

[2] = target: Calcium/calmodulin-dependent protein kinase type II subunit gamma (Homo sapiens) (UniProt Q13555)
Calcium/calmodulin-dependent protein kinase type II subunit gamma (Homo sapiens), sequence (Q13555 whole entry): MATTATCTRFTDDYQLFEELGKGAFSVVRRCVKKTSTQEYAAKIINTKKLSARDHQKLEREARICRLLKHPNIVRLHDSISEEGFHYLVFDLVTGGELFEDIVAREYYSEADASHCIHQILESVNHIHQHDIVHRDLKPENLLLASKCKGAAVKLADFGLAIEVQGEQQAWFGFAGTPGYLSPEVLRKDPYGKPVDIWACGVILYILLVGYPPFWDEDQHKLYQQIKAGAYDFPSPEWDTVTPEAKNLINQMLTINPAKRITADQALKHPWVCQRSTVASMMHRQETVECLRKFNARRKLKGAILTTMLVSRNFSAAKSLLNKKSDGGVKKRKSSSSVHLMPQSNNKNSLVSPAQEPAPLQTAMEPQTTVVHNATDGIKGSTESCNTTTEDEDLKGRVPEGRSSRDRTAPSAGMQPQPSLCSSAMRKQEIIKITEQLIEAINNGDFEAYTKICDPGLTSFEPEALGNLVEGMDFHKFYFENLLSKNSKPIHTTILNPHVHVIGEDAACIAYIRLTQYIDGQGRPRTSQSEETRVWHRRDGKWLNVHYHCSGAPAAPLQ

[3] = target: T2, Serine/threonine-protein kinase 4 (Homo sapiens) (UniProt Q13043)
T2 sequence (whole entry): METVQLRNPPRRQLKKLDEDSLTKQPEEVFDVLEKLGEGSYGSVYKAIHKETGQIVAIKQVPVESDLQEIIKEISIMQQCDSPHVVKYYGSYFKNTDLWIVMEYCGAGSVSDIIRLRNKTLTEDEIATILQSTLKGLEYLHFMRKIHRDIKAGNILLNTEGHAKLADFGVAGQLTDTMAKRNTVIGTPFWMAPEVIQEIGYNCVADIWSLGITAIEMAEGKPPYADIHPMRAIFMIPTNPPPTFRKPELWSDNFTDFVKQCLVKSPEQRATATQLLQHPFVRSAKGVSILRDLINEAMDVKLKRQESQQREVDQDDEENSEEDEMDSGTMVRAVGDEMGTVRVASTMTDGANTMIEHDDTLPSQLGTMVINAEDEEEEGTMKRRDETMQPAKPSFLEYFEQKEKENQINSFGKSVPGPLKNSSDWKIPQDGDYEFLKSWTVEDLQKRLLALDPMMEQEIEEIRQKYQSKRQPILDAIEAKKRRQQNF

[4] = target: Calcium/calmodulin-dependent protein kinase type II subunit alpha (Homo sapiens) (UniProt Q9UQM7)
Calcium/calmodulin-dependent protein kinase type II subunit alpha (Homo sapiens), sequence (Q9UQM7 whole entry): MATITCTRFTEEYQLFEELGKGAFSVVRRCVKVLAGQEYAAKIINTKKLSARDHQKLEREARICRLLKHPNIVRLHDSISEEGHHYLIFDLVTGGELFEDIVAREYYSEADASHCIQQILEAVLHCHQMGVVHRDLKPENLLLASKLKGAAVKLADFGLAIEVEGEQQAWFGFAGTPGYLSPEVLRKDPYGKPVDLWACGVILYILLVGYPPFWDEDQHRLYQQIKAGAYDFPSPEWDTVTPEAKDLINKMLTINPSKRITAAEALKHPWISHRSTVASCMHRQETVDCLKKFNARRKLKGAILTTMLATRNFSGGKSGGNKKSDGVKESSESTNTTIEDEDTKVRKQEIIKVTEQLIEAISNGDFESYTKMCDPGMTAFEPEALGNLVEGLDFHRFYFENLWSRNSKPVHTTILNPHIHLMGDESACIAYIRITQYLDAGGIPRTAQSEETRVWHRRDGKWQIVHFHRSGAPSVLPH

[5] = target: Serine/threonine-protein kinase PAK 6 (Homo sapiens) (UniProt Q9NQU5)
Serine/threonine-protein kinase PAK 6 (Homo sapiens), sequence (Q9NQU5 whole entry, looked up): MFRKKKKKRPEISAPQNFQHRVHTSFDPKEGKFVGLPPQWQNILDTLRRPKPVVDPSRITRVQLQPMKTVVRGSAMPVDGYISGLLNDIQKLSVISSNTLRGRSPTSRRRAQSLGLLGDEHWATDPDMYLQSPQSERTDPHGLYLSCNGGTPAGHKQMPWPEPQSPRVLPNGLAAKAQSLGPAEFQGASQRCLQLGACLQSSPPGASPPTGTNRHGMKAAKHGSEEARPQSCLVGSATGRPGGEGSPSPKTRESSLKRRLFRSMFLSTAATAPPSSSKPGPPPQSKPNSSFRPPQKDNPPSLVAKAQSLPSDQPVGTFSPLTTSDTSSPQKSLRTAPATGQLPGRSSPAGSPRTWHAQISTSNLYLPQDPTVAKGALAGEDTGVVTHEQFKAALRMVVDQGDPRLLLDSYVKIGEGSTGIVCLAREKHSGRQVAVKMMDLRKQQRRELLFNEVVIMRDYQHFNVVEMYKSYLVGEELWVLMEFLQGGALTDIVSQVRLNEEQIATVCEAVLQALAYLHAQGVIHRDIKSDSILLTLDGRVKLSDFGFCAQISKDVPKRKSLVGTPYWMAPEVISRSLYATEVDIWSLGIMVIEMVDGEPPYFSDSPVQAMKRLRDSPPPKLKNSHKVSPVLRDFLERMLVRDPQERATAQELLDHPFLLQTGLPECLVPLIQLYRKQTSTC

[6] = target: T3, Serine/threonine-protein kinase Nek2 (Homo sapiens) (UniProt P51955)
T3 sequence (whole entry): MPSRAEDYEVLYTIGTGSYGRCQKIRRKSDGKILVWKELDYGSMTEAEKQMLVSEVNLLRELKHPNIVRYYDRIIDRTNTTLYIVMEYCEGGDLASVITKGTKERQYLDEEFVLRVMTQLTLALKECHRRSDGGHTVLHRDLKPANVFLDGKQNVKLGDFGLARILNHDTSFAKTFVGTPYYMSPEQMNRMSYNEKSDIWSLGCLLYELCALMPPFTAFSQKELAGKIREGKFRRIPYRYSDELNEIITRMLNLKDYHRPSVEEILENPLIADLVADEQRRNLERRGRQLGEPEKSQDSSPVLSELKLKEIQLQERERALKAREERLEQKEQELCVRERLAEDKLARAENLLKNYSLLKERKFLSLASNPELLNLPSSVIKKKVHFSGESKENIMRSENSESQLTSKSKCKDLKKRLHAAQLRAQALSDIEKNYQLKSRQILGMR

Structure (SMILES)	ΔTm [1] [°C]	ΔTm [2] [°C]	ΔTm [3] [°C]	ΔTm [4] [°C]	ΔTm [5] [°C]	ΔTm [6] [°C]
O=C1C=C2C(=Nc3c2c2c(c4c3=NC3=C4CCC=C3)C=NC=2)CC1	-0.3	2.4	2.1	3.7	3.1	2.8
CN[C@@H]1CC2O[C@@](C)([C@@H]1OC)n1c3ccccc3c3c4c(c5c6ccccc6n2c5c31)C(=O)NC4	-0.7	14.6	17.9	16.3	16.8	2.8
Oc1ccc(-c2nc(-c3ccc(F)cc3)c(-c3ccncc3)[nH]2)cc1	-1	0.6	0.9	0.4	-0.2	0.2
CC(C)N(CCO)c1nc(Nc2cccc(Cl)c2)c2ncn(C(C)C)c2n1	-0.8	0.6	4.2	0.5	5.3	0.7
Nc1cc2ncnc(Nc3cccc(Br)c3)c2cc1N	-0.2	-0.1	2.7	0	0.3	3.3
O=C1Nc2ccccc2/C1=C1/Nc2ccccc2/C1=N\O	0.8	5.3	8.4	6.1	2.9	2.8
O=C1c2ccccc2-c2n[nH]c3cccc1c23	-0.1	0.8	4.3	0.8	1.8	2.3
Nc1nccc(-c2c(-c3ccc(F)cc3)ncn2C2CCNCC2)n1	-0.2	0.1	2.6	0.4	-0.5	1.1
C[C@@H](N)[C@H]1CC[C@H](C(=O)Nc2ccncc2)CC1	-0.3	1	1.4	-0.3	-0.2	-0.1
O=C(O)c1cc(NCc2cc(O)ccc2O)ccc1O	0.2	0	-0.6	0.4	-0.1	0.7
O=C1Cc2c([nH]c3ccc([N+](=O)[O-])cc23)-c2ccccc2N1	0	-0.1	5.1	0.6	3.1	2.2
O=C1Nc2ccc(I)cc2/C1=C1/Nc2ccccc2/C1=N\O	-0.3	5.4	9.5	4.5	0.9	1.4
CCN(CC)CCNC(=O)c1c(C)[nH]c(/C=C2\C(=O)Nc3ccc(F)cc32)c1C	2.9	5.2	0.5	5	3.5	-0.4
N#C/C(=C\c1ccc(O)c(O)c1)C(=O)Nc1ccccc1	-0.3	-0.2	0.4	0.3	0	1.4
COC1=C2C[C@@H](C)C[C@H](OC)[C@H](O)[C@@H](C)/C=C(\C)[C@H](OC(N)=O)[C@@H](OC)/C=C\C=C(/C)C(=O)NC(=CC1=O)C2=O	0	0.1	0.1	-0.1	0.3	0.5
O=C(O)Cc1ccc(O)c([N+](=O)[O-])c1	-0.6	-0.1	0.4	1.4	-0.9	1.9
O=C1Nc2cc(Br)ccc2/C1=C1/Nc2ccccc2/C1=N\O	-0.6	4	4.4	0.1	3.4	0.7
O=c1sn(Cc2ccccc2)c(=S)n1Cc1ccccc1	0	0.4	0.9	0.3	0.1	1.5

Structure (SMILES)	ΔTm [1] [°C]	ΔTm [2] [°C]	ΔTm [3] [°C]	ΔTm [4] [°C]	ΔTm [5] [°C]	ΔTm [6] [°C]
Cc1cc2ncc(-c3ccccc3)nc2cc1C	-0.1	0.4	2.2	1	0	2.1
COC(=O)[C@]1(O)C[C@@H]2O[C@@]1(C)n1c3ccccc3c3c4c(c5c6ccccc6n2c5c31)C(=O)NC4 (single isomer, unassigned)	-0.4	6.5	9.5	3.2	9.7	1.9
CN(C)CC1CCn2c(c(C3=C(c4c[nH]c5ccccc45)C(=O)NC3=O)c3ccccc32)C1 (configuration not stated)	-0.1	1.3	4.9	1.6	0.7	1
Nc1nc(Nc2ccc(S(N)(=O)=O)cc2)nn1C(=S)Nc1c(F)cccc1F	0.4	4.2	12.9	3.3	5.6	2.5
CC(C)(C)c1nc2c3ccc(F)cc3c3c(=O)[nH]ccc3c2[nH]1	-1.3	4.5	7.8	2.6	2.3	0.7
Nc1ncnc2c1c(I)cn2[C@@H]1O[C@H](CO)[C@@H](O)[C@H]1O	0	0.6	4.7	0.7	1.1	0.4
Cn1cc(/C=C2/C(=O)Nc3ccc(S(N)(=O)=O)cc32)c2ccccc21	0.2	0.5	-0.4	2.7	-0.6	0.9
O=c1c(-c2ccc(F)cc2)c(-c2ccncc2)[nH]n1-c1ccc(Cl)cc1	-1.2	0	1.8	0.5	-0.4	1.4
O=c1c(-c2ccc(O)cc2)coc2cc(O)cc(O)c12	2.5	0	1.5	0.8	-0.9	-0.1
COc1ccc(COc2ccc(Cc3cnc(N)nc3N)cc2OC)cc1	-0.9	0.2	0.2	-0.1	0.1	-0.1
Cc1ccc(NC(=O)c2ccc(CN3CCN(C)CC3)cc2)cc1Nc1nccc(-c2cccnc2)n1	-0.2	0.8	0.2	0.2	4.1	-0.8
O=C1NC(=O)C(c2c[nH]c3ccccc23)=C1c1c[nH]c2ccccc12	0	2.2	4.1	3.3	0.8	1.9
Ic1cccc(CSc2nnc(-c3ccncc3)o2)c1	-0.6	-0.1	-0.4	-0.6	0.2	-0.2
O=c1cc(-c2ccc(O)cc2)oc2cc(O)cc(O)c12	-1.9	-11.5	2.8	0.5	0.3	1.4
Clc1ccc(Nc2nnc(Cc3ccncc3)c3ccccc23)cc1	4	-0.4	–	0.4	0	0.6
Cc1nc(Nc2ncc(C(=O)Nc3c(C)cccc3Cl)s2)cc(N2CCN(CCO)CC2)n1	6.8	-0.3	–	0	2.1	0.1
COc1cc2ncnc(Nc3cccc(O)c3)c2cc1OC	0	0.5	1.6	0	–	0.2
